In assay [1] the target is T1, EED (1-441)-His protein (Homo sapiens, UniProt O75530).
T1 construct: 30 nM EED (1-441)-His protein
Briefly: EED-H3K27Me3 peptide competition binding assay by AlphaScreen. As to conditions: EED-H3K27Me3 peptide competition, AlphaScreen; read-out: (a) IC50 EED Alphascreen binding Qualified. In a few lines: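 Serially diluted compound (12 points, 3-fold) incubated 20 min with 30 nM EED(1-441)-His and 15 nM biotin-H3K27Me3(19-33) peptide in 25 mM HEPES pH 8, 0.02% Tween-20, 0.5% BSA. Ni-chelate acceptor/streptavidin donor beads (10 μg/mL each) added, 1 h rt dark; 615 nm emission normalized to controls, dose-response fit for IC50.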
A general note: Alpha assays give light when donor and acceptor beads are brought close together.

Assay [2] concerns the target wild type PRC2 (wtPRC2) complex (Homo sapiens, UniProt O75530). Put plainly: EED LC-MS assay (SAH production by PRC2). To be noted: PRC2 LC-MS assay; read-out: (b) IC50 EED LC-MS Qualified. Format: biochemical. In a few lines: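 Pentameric PRC2 (EZH2, SUZ12, EED, Rbap48, AEBP), 12 nM final, preincubated 20 min with compound and SAM, then 1.5 μM biotinylated H3K27me0 peptide, 1 μM SAM, pH 8.0, 120 min at rt. SAH quantified by LC-MS/MS with d4-SAH; control-normalized activity fitted for IC50.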

Assay [3] has as its system H3K27 methylation in G401 cell. Put plainly: ELISA (H3K27 methylation) assay in G401 cells. It counts as cell-based, human. As to conditions: Homo sapiens, G-401, H3K27 methylation ELISA, read-out: (c) IC50 ELISA Qualified. In a few lines:
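G401 cells treated 48 h with 3-fold dilutions (8 or 12 points, top 20 μM). Acid-extracted histones probed by ELISA for H3K27me3 or H3K27me2 with ECL readout, normalized to total H3. Percent inhibition versus DMSO fitted to dose-response curve for IC50.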
On the technique in general: An ELISA detects its analyte on a solid surface through an enzyme-linked reagent.

Data on 20 compounds can be found in US10689378B2, “Triazolopyridine compounds and uses thereof” (Novartis AG, priority 2016, dated 2020).

Molecules are shown by their SMILES.

In general, IC50 refers to the concentration that inhibits the measured activity by half.

T1 sequence (O75530 whole entry): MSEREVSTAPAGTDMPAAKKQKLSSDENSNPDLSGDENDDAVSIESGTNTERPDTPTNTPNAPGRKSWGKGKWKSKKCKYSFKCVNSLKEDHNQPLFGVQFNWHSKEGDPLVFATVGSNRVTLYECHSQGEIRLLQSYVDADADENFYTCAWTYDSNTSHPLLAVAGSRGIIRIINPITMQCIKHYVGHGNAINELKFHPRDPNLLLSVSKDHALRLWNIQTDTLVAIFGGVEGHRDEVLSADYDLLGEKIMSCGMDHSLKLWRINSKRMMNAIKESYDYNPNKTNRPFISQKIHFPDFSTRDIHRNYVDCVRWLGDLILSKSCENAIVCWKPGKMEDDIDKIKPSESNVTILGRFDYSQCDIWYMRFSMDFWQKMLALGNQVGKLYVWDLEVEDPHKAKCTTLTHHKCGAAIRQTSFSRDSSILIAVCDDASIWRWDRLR
Sequence of wild type PRC2 (wtPRC2) complex (O75530 whole entry): as above
Sequence of wild type PRC2 (wtPRC2) complex (Q15910 whole entry partner): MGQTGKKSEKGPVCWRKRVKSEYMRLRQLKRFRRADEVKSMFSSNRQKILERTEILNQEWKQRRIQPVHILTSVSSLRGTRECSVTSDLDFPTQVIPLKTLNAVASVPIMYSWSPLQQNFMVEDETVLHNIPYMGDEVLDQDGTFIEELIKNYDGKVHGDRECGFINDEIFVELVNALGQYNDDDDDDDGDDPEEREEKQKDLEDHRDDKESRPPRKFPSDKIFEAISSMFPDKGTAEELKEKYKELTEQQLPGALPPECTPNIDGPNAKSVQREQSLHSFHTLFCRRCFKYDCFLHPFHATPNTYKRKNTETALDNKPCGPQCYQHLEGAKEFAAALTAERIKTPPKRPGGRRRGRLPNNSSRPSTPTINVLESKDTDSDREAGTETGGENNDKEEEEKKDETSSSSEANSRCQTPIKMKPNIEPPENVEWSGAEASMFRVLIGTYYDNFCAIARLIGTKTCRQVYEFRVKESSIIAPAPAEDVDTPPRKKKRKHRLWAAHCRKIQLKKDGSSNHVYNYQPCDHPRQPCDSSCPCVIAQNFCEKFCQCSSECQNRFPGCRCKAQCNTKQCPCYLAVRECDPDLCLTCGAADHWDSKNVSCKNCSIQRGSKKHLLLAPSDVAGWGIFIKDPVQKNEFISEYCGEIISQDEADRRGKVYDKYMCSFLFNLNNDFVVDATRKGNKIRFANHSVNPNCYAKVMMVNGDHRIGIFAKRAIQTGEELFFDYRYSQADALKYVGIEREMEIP
Sequence of wild type PRC2 (wtPRC2) complex (Q15022 whole entry partner): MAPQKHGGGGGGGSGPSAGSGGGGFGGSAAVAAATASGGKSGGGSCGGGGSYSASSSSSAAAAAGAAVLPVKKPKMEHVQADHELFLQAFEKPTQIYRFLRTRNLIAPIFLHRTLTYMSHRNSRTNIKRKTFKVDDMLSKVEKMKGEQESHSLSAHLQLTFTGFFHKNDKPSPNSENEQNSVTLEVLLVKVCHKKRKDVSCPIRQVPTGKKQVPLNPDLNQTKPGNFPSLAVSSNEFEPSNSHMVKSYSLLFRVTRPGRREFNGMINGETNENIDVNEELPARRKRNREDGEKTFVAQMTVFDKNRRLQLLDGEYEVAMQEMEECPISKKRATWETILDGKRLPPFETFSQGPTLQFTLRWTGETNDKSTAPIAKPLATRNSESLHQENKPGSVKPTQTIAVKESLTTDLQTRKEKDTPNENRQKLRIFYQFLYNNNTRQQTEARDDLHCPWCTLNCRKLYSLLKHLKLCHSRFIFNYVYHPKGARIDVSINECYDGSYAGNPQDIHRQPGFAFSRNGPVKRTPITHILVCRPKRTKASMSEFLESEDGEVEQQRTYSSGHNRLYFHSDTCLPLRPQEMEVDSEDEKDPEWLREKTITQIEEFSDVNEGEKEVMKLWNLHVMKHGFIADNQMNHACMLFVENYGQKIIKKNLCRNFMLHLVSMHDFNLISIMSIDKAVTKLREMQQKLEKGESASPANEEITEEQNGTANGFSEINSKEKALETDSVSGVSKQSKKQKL
Sequence of wild type PRC2 (wtPRC2) complex (Q09028 whole entry partner): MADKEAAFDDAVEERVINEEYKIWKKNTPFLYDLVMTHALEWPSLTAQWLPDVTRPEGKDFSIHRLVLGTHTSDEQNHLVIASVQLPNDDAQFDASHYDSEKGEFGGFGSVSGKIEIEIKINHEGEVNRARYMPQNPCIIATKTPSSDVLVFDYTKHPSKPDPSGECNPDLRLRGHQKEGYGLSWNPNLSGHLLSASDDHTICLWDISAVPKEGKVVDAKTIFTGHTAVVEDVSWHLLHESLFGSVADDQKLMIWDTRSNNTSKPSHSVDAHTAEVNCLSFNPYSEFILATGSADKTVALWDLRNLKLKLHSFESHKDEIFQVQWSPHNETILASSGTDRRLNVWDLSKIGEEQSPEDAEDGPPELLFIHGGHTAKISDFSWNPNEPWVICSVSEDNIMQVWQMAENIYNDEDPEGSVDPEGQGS
Sequence of wild type PRC2 (wtPRC2) complex (Q6ZN18 whole entry partner): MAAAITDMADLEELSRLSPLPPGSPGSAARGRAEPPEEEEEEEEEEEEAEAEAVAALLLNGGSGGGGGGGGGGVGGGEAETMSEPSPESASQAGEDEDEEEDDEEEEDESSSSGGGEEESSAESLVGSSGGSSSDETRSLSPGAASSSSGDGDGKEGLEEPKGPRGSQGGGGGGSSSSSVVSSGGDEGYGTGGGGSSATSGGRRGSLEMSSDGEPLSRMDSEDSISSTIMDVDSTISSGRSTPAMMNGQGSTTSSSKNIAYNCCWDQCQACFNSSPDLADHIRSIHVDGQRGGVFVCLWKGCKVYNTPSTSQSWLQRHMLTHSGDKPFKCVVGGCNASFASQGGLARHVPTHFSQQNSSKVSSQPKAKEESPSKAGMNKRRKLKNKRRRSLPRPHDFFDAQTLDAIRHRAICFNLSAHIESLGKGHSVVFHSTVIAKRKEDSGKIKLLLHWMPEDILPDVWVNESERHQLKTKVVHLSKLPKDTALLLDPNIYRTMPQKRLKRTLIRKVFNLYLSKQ

Take `COc1ncc(-c2ccc(NCc3c(F)cccc3OC)n3cnnc23)c(C)n1` [Example 322, N-(2-fluoro-6-methoxybenzyl)-8-(2-methoxy-4-methylpyrimidin-5-yl)-[1,2,4]triazolo[4,3-a]pyridin-5-amine]: the figures for the IC50 in assay [1], in assay [2] and in assay [3] were 9.1 nM, 32.3 nM and 7.1 nM, respectively.

For the compound `COc1ncc(-c2ccc(NCc3c(F)cc(F)cc3OC)n3cnnc23)c(C)n1` [Example 323, N-(2,4-difluoro-6-methoxybenzyl)-8-(2-methoxy-4-methylpyrimidin-5-yl)-[1,2,4]triazolo[4,3-a]pyridin-5-amine], the results for the IC50 in assay [1], in assay [2] and in assay [3] were 24.6 nM, 31.2 nM and 14.3 nM, respectively.

For `COc1cc(F)cc(F)c1CNc1ccc(-c2ccc(C#N)nc2C)c2nncn12` [Example 324, 5-(5-((2,4-difluoro-6-methoxybenzyl)amino)-[1,2,4]triazolo[4,3-a]pyridin-8-yl)-6-methylpicolinonitrile], the IC50 in assay [1] was 17.9 nM; in assay [2], 63.8 nM; in assay [3], 15.9 nM.

For `COc1cccc(F)c1CNc1ccc(-c2cnccn2)c2nncn12` [Example 325, N-(2-fluoro-6-methoxybenzyl)-8-(pyrazin-2-yl)-[1,2,4]triazolo[4,3-a]pyridin-5-amine], the figures for the half-maximal inhibitory concentration (IC50) in assay [1], in assay [2] and in assay [3] were 37 nM, 141 nM and 33.8 nM, respectively.

As for `COc1cccc(F)c1CNc1ccc(-c2cc(Cl)cnc2C)c2nncn12` [Example 326, 8-(5-chloro-2-methylpyridin-3-yl)-N-(2-fluoro-6-methoxybenzyl)-[1,2,4]triazolo[4,3-a] pyridin-5-amine], the figures for the IC50 in assay [1], in assay [2] and in assay [3] were 26.1 nM, 71.6 nM and 29.8 nM, respectively.

As for `COc1c(F)ccc(F)c1CNc1ccc(-c2cccnc2C)c2nncn12` [Example 327, N-(3,6-difluoro-2-methoxybenzyl)-8-(2-methylpyridin-3-yl)-[1,2,4]triazolo[4,3-a] pyridin-5-amine], the IC50 in assay [1] amounted to 48.3 nM; in assay [2] it was 172 nM; in assay [3], 51.9 nM.

As for `COc1ncccc1CNc1ccc(-c2cccnc2C)c2nncn12` [Example 328, N-((2-methoxypyridin-3-yl)methyl)-8-(2-methylpyridin-3-yl)-[1,2,4]triazolo[4,3-a] pyridin-5-amine], the IC50 in assay [1] came to 73.5 nM; in assay [2] it was 284 nM; in assay [3], 76.3 nM.

Consider `COc1cc(F)cc(F)c1CNc1ccc(-c2cnc(C)cc2C)c2nncn12` [Example 329, N-(2,4-difluoro-6-methoxybenzyl)-8-(4,6-dimethylpyridin-3-yl)-[1,2,4]triazolo [4,3-a]pyridin-5-amine], for which the concentration for half-maximal inhibition (IC50) turned out to be 31.1 nM in assay [1], 1360 nM in assay [2] and 48 nM in assay [3].

For `COc1cccc(F)c1CNc1ccc(-c2cn(C)nc2CO)c2nncn12` [Example 330, (4-(5-((2-fluoro-6-methoxy benzyl)amino)-[1,2,4]triazolo[4,3-a]pyridin-8-yl)-1-methyl-1H-pyrazol-3-yl) methanol], the IC50 is 24 nM in assay [1], 96.2 nM in assay [2] and 24 nM in assay [3].

On to `COc1cccc(F)c1CNc1ccc(-c2cnc(OC(C)C)nc2C)c2nncn12` [Example 332, N-(2-fluoro-6-methoxybenzyl)-8-(2-isopropoxy-4-methylpyrimidin-5-yl)-[1,2,4] triazolo[4,3-a]pyridin-5-amine], for which the half-maximal inhibitory concentration (IC50) was determined as 8.2 nM in assay [1], 26.6 nM in assay [2] and 7.3 nM in assay [3].

In the case of `COc1c(F)ccc(F)c1CNc1ccc(-c2cnc(C)nc2C)c2nncn12` [Example 333, N-(3,6-difluoro-2-methoxybenzyl)-8-(2,4-dimethylpyrimidin-5-yl)-[1,2,4] triazolo[4,3-a]pyridin-5-amine], the IC50 in assay [1] turned out to be 95.1 nM; in assay [2] it was 286 nM; in assay [3] it was 67.6 nM.

In the case of `COc1c(F)ccc(F)c1CNc1ccc(-c2ccc(S(C)(=O)=O)nc2C)c2nncn12` [Example 334, N-(3,6-difluoro-2-methoxybenzyl)-8-(2-methyl-6-(methylsulfonyl)pyridin-3-yl)-[1,2,4]triazolo[4,3-a] pyridin-5-amine], the values for the IC50 in assay [1], in assay [2] and in assay [3] were 38 nM, 144 nM and 31.6 nM, respectively.

As for `COc1cccc(Cl)c1CNc1ccc(-c2cccnc2C)c2nncn12` [Example 335, N-(2-chloro-6-methoxybenzyl)-8-(2-methylpyridin-3-yl)-[1,2,4]triazolo[4,3-a] pyridin-5-amine], the IC50 in assay [1] is 84.5 nM; in assay [2] it was 254 nM; in assay [3] it was 318 nM.

In the case of `COc1cccc(F)c1CNc1ccc(-c2cnn(C)c2CO)c2nncn12` [Example 336, (4-(5-((2-fluoro-6-methoxy benzyl)amino)-[1,2,4]triazolo[4,3-a]pyridin-8-yl)-1-methyl-1H-pyrazol-5-yl) methanol], the IC50 came to 12.8 nM in assay [1], 59.5 nM in assay [2] and 12.1 nM in assay [3].

Take `COc1cccc(F)c1CNc1ccc(-c2cc(C)ncc2C(F)F)c2nncn12` [Example 337, 8-(5-(difluoromethyl)-2-methylpyridin-4-yl)-N-(2-fluoro-6-methoxybenzyl)-[1,2,4]triazolo[4,3-a]pyridin-5-amine]: the IC50 was 23.8 nM in assay [1], 166 nM in assay [2] and 43.1 nM in assay [3].

On to `COc1cccc(F)c1CNc1ccc(-c2c(Cl)ccnc2C)c2nncn12` [Example 338, 8-(4-chloro-2-methylpyridin-3-yl)-N-(2-fluoro-6-methoxybenzyl)-[1,2,4]triazolo[4,3-a] pyridin-5-amine], for which the IC50 was 7.4 nM in assay [1], 42.1 nM in assay [2] and 16.2 nM in assay [3].

As for `COc1cccc(F)c1CNc1ccc(-c2ccc(CC#N)nc2C)c2nncn12` [Example 339, 2-(5-(5-((2-fluoro-6-methoxybenzyl)amino)-[1,2,4]triazolo[4,3-a]pyridin-8-yl)-6-methylpyridin-2-yl) acetonitrile], the IC50 in assay [1] was 6 nM; in assay [2], 20.9 nM; in assay [3], 6.7 nM.

As to `COc1cccc(F)c1CNc1ccc(-c2cccnc2C#N)c2nncn12` [Example 340, 3-(5-((2-fluoro-6-methoxybenzyl)amino)-[1,2,4]triazolo[4,3-a]pyridin-8-yl) picolinonitrile], the values for the IC50 in assay [1], in assay [2] and in assay [3] were 12.5 nM, 523 nM and 25.5 nM, respectively.

On to `COc1cccc(F)c1CNc1ccc(-c2cccnc2CC#N)c2nncn12` [Example 341, 2-(3-(5-((2-fluoro-6-methoxybenzyl)amino)-[1,2,4]triazolo[4,3-a]pyridin-8-yl)pyridin-2-yl)acetonitrile], for which the IC50 amounted to 21.6 nM in assay [1], 95.5 nM in assay [2] and 21.9 nM in assay [3].

With `CCOc1ncc(-c2ccc(NCc3c(F)cc(F)cc3OC)n3cnnc23)c(C)n1` [Example 343, N-(2,4-difluoro-6-methoxybenzyl)-8-(2-ethoxy-4-methylpyrimidin-5-yl)-[1,2,4]triazolo[4,3-a]pyridin-5-amine], the values for the IC50 in assay [1], in assay [2] and in assay [3] were 25.7 nM, 492 nM and 36.5 nM, respectively.
